Our source for the IC50 values is patent EP4775577A1, “RAS INHIBITOR” (Tyligand Bioscience (Shanghai) Limited, priority 2023, dated 2025).

Assay [1] relates to KRAS G12V mutant NCI-H727 cells. Put plainly: Proliferation inhibition of NCI-H727 cells, 3D CellTiter-Glo assay (Method B). The assay is classed as cell-based, human. Particulars: Homo sapiens, NCI-H727, 120 h, Method B; 3D culture with 0.65% methylcellulose, 5 days, CTG; read-out: NCI-H727 IC50/nM. In short, it runs like this: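 Cells grown in 3D medium (RPMI-1640, 10% FBS, 0.65% methylcellulose) overnight, then treated 5 days at 37 °C, 5% CO2 with 9 threefold dilutions from 10 µM top working concentration, duplicate wells. CellTiter-Glo luminescence read; IC50 (nM) fitted by dose-response-inhibition equation.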
(In ATP-based viability assays light output follows the ATP content of the culture.)

The subject of assay [2] is KRAS G12D mutant AGS cells. Put plainly: Proliferation inhibition of AGS cells, CellTiter-Glo assay. It counts as cell-based, human. As to conditions: Homo sapiens, AGS, 72 h, 3 days, CTG; read-out: AGS IC50/nM. The procedure, abridged: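 AGS cells at 1500 cells/well in F12K + 10% FBS were exposed for 3 days at 37°C to nine 3-fold dilutions from 10 µM top concentration, in duplicate. Viability read by CellTiter-Glo luminescence; IC50 (nM) from dose-response-inhibition fitting.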

Regarding `[2H]C([2H])([2H])N1CC[C@H](C(F)F)[C@](C)(COc2nc(N3CCCn4nc(C(=O)N(C)C)cc4C3)c3cc([N+](=O)[O-])c(-c4cccc5sc(N)c(C#N)c45)c(F)c3n2)C1` [Example 95, 5-(7-(2-Amino-3-cyanobenzo[b]thiophene-4-yl)-2-(((3S,4S)-4-(difluoromethyl)-3-methyl-1-(methyl-d3)piperidine-3-yl)methoxy)-8-fluoro-6-nitroquinazoline-4-yl)-N,N-dimethyl-5,6,7,8-tetrahydro-4H-pyrazolo[1,5-a][1,4]diazepine-2-formamide], the IC50 in assay [1] amounted to 36.1 nM; in assay [2], 10.5 nM.
In the same order, the values of `[2H]C([2H])([2H])N1CC/C(=C\F)[C@](C)(COc2nc(N3CCCn4nc(C(=O)N(C)C)cc4C3)c3cc([N+](=O)[O-])c(-c4cccc5sc(N)c(C#N)c45)c(F)c3n2)C1` [Example 98] are 27.1 nM and 15.8 nM.
Regarding `[2H]C([2H])([2H])N1CCC(C(F)F)C(C)(COc2nc(N3CCOCC(C)(O)C3)c3cc(C(F)(F)F)c(-c4ccc(F)c5sc(N)c(C#N)c45)c(F)c3n2)C1` (stereo not drawn) [Example 99], the IC50 in assay [1] amounted to 2.4 nM; in assay [2], 13.1 nM.
Take `CN1CC/C(=C\F)[C@](C)(COc2nc(N3CCCn4nc(C(=O)N(C)C)cc4C3)c3cc(C(F)F)c(-c4cccc5sc(N)c(C#N)c45)c(F)c3n2)C1` [Example 100]: the IC50 in assay [1] came to 47.7 nM; in assay [2], 20 nM.
For `CN1CCC(=CF)C(C)(COc2nc(N3CCC(C#N)C(O)C3)c3cc(C(F)(F)F)c(-c4cccc5sc(N)c(C#N)c45)c(F)c3n2)C1` (stereo not drawn) [Example 105] the same measures were 26.9 nM and 338 nM.
For `CN1CC/C(=C\F)[C@](C)(COc2nc(N3CCCn4nc(C(=O)N(C)C)cc4C3)c3cc(/C=C/F)c(-c4cccc5sc(N)c(C#N)c45)c(F)c3n2)C1` [Example 111] the same measures were 54.7 nM and 25.6 nM.
With `CN1CC/C(=C\F)[C@](C)(COc2nc(N3CCCn4nc(C(=O)N(C)C)cc4C3)c3cc(/C=C\F)c(-c4cccc5sc(N)c(C#N)c45)c(F)c3n2)C1` [Example 112], the results for the IC50 in assay [1] and in assay [2] were 20.2 nM and 9.9 nM, respectively.
With `CN1CC/C(=C\F)[C@](C)(COc2nc(N3CCCN4C(=O)OCC4C3)c3cc(C(F)(F)F)c(-c4cccc5sc(N)c(C#N)c45)c(F)c3n2)C1` (stereo partly drawn) [Example 113], the IC50 in assay [1] stood at 168 nM; in assay [2], 584 nM.
In the same order, the values of `CNC(=O)c1cc2n(n1)CCCN(c1nc(OC[C@]3(C)CN(C)CC/C3=C\F)nc3c(F)c(-c4cccc5sc(N)c(C#N)c45)c(C(F)(F)F)cc13)C2` [Example 118] are 35.5 nM and 12.8 nM.
In the same order, the values of `CN1CC/C(=C\F)[C@](C)(COc2nc(N3CCCn4nc(C(=O)N(C)C)c(N)c4C3)c3cc(C(F)(F)F)c(-c4cccc5sc(N)c(C#N)c45)c(F)c3n2)C1` [Example 120] are 29.8 nM and 10.3 nM.
In the case of `CN1CC/C(=C\F)[C@](C)(COc2nc(N3CCCn4nc(N)c(C(=O)N(C)C)c4C3)c3cc(C(F)(F)F)c(-c4cccc5sc(N)c(C#N)c45)c(F)c3n2)C1` [Example 121], the IC50 in assay [1] was 439 nM; in assay [2], 179 nM.
For the molecule `CCc1cc2c(N3Cc4cc(C(=O)N(C)C)nn4CC[C@@H]3C)nc(OC[C@]3(C)CN(C)CC/C3=C\F)nc2c(F)c1-c1cccc2sc(N)c(C#N)c12` [Example 165A], the IC50 in assay [1] was 3.6 nM; in assay [2], 3.2 nM.
For the molecule `CCc1cc2c(N3Cc4cc(C(=O)N(C)C)nn4CC[C@@H]3C)nc(OC[C@]3(C)CN(C)CC/C3=C\F)nc2c(F)c1-c1ccc(F)c2sc(N)c(C#N)c12` [Example 166A], the IC50 in assay [1] amounted to 7.4 nM; in assay [2], 4.9 nM.
Take `CN1CC/C(=C\F)[C@](C)(COc2nc(N3CCCn4nc(C(=O)N(C)C)c(Cl)c4C3)c3cc(C4CC4)c(-c4ncc(F)c5sc(N)c(C#N)c45)c(F)c3n2)C1` [Example 167A]: the IC50 in assay [1] is 96.7 nM; in assay [2], 21.7 nM.
For `C[C@H]1CCn2nc(C(=O)N(C)C)cc2CN1c1nc(OC[C@]2(C)CN(C)CC/C2=C\F)nc2c(F)c(-c3ncc(F)c4sc(N)c(C#N)c34)c(C3CC3)cc12` [Example 168A] the same measures were 85 nM and 42.1 nM.
Turning to `CCc1cc2c(N3CCCn4nc(C(=O)N(C)C)c(Cl)c4C3)nc(OC[C@]3(C)CN(C)CC/C3=C\F)nc2c(F)c1-c1ncc(F)c2sc(N)c(C#N)c12` [Example 169A], the IC50 in assay [1] stood at 59.9 nM; in assay [2] it was 14.6 nM.
In the case of `CCc1cc2c(N3Cc4cc(C(=O)N(C)C)nn4CC[C@@H]3C)nc(OC[C@]3(C)CN(C)CC/C3=C\F)nc2c(F)c1-c1ncc(F)c2sc(N)c(C#N)c12` [Example 170A], the figures for the IC50 in assay [1] and in assay [2] were 81.9 nM and 33.2 nM, respectively.
For `Cc1c(-c2ncc(F)c3sc(N)c(C#N)c23)c(Cl)cc2c(N3Cc4cc(C(=O)N(C)C)nn4CC[C@@H]3C)nc(OC[C@]3(C)CN(C)CC/C3=C\F)nc12` [Example 171A] the same measures were 4.1 nM and 4.7 nM.
For `CCN1CC/C(=C\F)[C@](C)(COc2nc(N3CCCn4nc(C(=O)N(C)C)c(Cl)c4C3)c3cc(Cl)c(-c4c(F)ccc5sc(N)c(C#N)c45)c(C)c3n2)C1` [Example 180] the same measures were 11.3 nM and 10.6 nM.
In the same order, the values of `[2H]C([2H])([2H])N1CCC(=CF)C(C)(COc2nc(N3CCCn4nc(C(=O)N(C)C)c(Cl)c4C3)c3cc(CC)c(-c4c(F)ccc5sc(N)c(C#N)c45)c(C)c3n2)C1` (stereo not drawn) [Example 186] are 5.4 nM and 4.4 nM.
For the molecule `[2H]C([2H])([2H])N1CCC(=CF)C(C)(COc2nc(N3Cc4cc(C(=O)N(C)C)nn4CCC3C)c3cc(CC)c(-c4c(F)ccc5sc(N)c(C#N)c45)c(C)c3n2)C1` (stereo not drawn) [Example 188], the figures for the IC50 in assay [1] and in assay [2] were 3.1 nM and 2.9 nM, respectively.
`CCc1cc2c(N3Cc4cc(C(=O)N(C)C)nn4CCC3C)nc(OCC3(C)CN(CC)CCC3=CF)nc2c(C)c1-c1c(F)ccc2sc(N)c(C#N)c12` (stereo not drawn) [Example 189]: the IC50 came out at 2.6 nM in assay [1] and 2 nM in assay [2].
For `[2H]C([2H])([2H])N1CCC(=CF)C(C)(COc2nc(N3CCCn4nc(C(=O)N(C)C)c(Cl)c4C3)c3cc(CC)c(-c4c(F)ccc5sc(N)c(C#N)c45)c(Cl)c3n2)C1` (stereo not drawn) [Example 190] the same measures were 3.2 nM and under 1.5 nM.
For `[2H]C([2H])([2H])N1CCC(=CF)C(C)(COc2nc(N3Cc4cc(C(=O)N(C)C)nn4CCC3C)c3cc(CC)c(-c4c(F)ccc5sc(N)c(C#N)c45)c(Cl)c3n2)C1` (stereo not drawn) [Example 192] the same measures were 2 nM and under 1.5 nM.
Turning to `CCc1cc2c(N3Cc4cc(C(=O)N(C)C)nn4CCC3C)nc(OCC3(C)CN(CC)CCC3=CF)nc2c(Cl)c1-c1c(F)ccc2sc(N)c(C#N)c12` (stereo not drawn) [Example 193], the IC50 in assay [1] is 2.1 nM; in assay [2], under 1.5 nM.
For `CCc1cc2c(N3Cc4c(Cl)c(C(=O)N(C)C)nn4CCC3C)nc(OCC3(C)CN(C)CCC3=CF)nc2c(F)c1-c1c(F)ccc2sc(N)c(C#N)c12` (stereo not drawn) [Example 194] the same measures were under 1.5 nM and under 1.5 nM.
For `[2H]C([2H])([2H])N1CCC(=CF)C(C)(COc2nc(N3CCCn4nc(C(=O)N(C)C)c(Cl)c4C3)c3cc(Cl)c(-c4c(F)ccc5sc(N)c(C#N)c45)c(Cl)c3n2)C1` (stereo not drawn) [Example 195] the same measures were 2.5 nM and 2.5 nM.
For `[2H]C([2H])([2H])N1CCC(=CF)C(C)(COc2nc(N3Cc4cc(C(=O)N(C)C)nn4CCC3C)c3cc(Cl)c(-c4c(F)ccc5sc(N)c(C#N)c45)c(Cl)c3n2)C1` (stereo not drawn) [Example 197] the same measures were 2.1 nM and 3 nM.
Take `CCN1CCC(=CF)C(C)(COc2nc(N3Cc4cc(C(=O)N(C)C)nn4CCC3C)c3cc(Cl)c(-c4c(C#N)c(N)cc(C)c4C(F)(F)F)c(C)c3n2)C1` (stereo not drawn) [Example 221]: the values for the IC50 in assay [1] and in assay [2] were 71.8 nM and 103 nM, respectively.
For `CCC1CCn2nc(C(=O)N(C)C)cc2CN1c1nc(OCC2(C)CN(CC)CCC2=CF)nc2c(F)c(-c3c(F)ccc4sc(N)c(C#N)c34)c(Cl)cc12` (stereo not drawn) [Example 250A] the same measures were under 1.5 nM and under 1.5 nM.
`CCN1CC/C(=C\F)[C@](C)(COc2nc(N3CCCn4nc(C(=O)N(C)C)c(Cl)c4C3)c3cc(C(F)(F)F)c(-c4ncc(F)c5sc(N)c(C#N)c45)c(F)c3n2)C1` [Example 253]: the IC50 in assay [1] is 8.7 nM; in assay [2], 2.5 nM.
On to `CCN1CCC(=CF)C(C)(COc2nc(N3Cc4cc(C(=O)N5CCC5)nn4CCC3C)c3cc(Cl)c(-c4c(F)ccc5sc(N)c(C#N)c45)c(F)c3n2)C1` (stereo not drawn) [Example 254A], for which the IC50 in assay [1] and in assay [2] was under 1.5 nM throughout.
Take `CCN1CCC(=CF)C(C)(COc2nc(N3Cc4c(Cl)nnn4CCC3C)c3cc(Cl)c(-c4c(F)ccc5sc(N)c(C#N)c45)c(F)c3n2)C1` (stereo not drawn) [Example 259A]: the IC50 in assay [1] stood at 1.7 nM; in assay [2] it was 3.1 nM.
Consider `CCN1CCC(=CF)C(C)(COc2nc(N3Cc4cc(C(=O)N5CCN(C)CC5)nn4CCC3C)c3cc(Cl)c(-c4c(F)ccc5sc(N)c(C#N)c45)c(F)c3n2)C1` (stereo not drawn) [Example 261A], for which the IC50 in assay [1] was 1.9 nM; in assay [2], under 1.5 nM.
In the same order, the values of `CCN1CCC(=CF)C(C)(COc2nc(N3Cc4cc(C(=O)N5CCCC5)nn4CCC3C)c3cc(Cl)c(-c4c(F)ccc5sc(N)c(C#N)c45)c(F)c3n2)C1` (stereo not drawn) [Example 262A] are 2.4 nM and 2.9 nM.
For `[2H]C([2H])([2H])N1CCC(=CF)C(C)(COc2nc(N3Cc4cc(C(=O)N5CCOCC5)nn4CCC3C)c3cc(CC)c(-c4c(F)ccc5sc(N)c(C#N)c45)c(F)c3n2)C1` (stereo not drawn) [Example 263A] the same measures were 2.5 nM and 2.5 nM.
